In publication PMC7216583 (Parasites & Vectors, 2020):
Structures can show the parent of a compound that is named as a salt. Where two headings read alike, the source gives them in different places.

Experiments:
[1] = system: Toxoplasma gondii RH-2F tachyzoites; experiment: microbe, parasite or virus in culture; conditions: 72 h
PI3Kγ = system: PI3Kγ; parameters: method as in S-inhibitor catalog; conditions: vendor brief description; ref S-inhibitor catalog; cited from earlier work
human DGAT-1 = system: human DGAT-1; parameters: method as in S-inhibitor catalog; conditions: vendor brief description; ref S-inhibitor catalog; cited from earlier work
mouse DGAT-1 = system: mouse DGAT-1; parameters: method as in S-inhibitor catalog; conditions: vendor brief description; ref S-inhibitor catalog; cited from earlier work
fatty acid synthesis = system: fatty acid synthesis; parameters: method as in S-inhibitor catalog; conditions: vendor brief description; ref S-inhibitor catalog; cited from earlier work
AMPK = conditions: read-out: EC50, AMPK activation; vendor brief description; ref S-inhibitor catalog; cited from earlier work
mouse c-Met = molecular target: mouse c-Met; parameters: method as in S-inhibitor catalog; conditions: vendor brief description; ref S-inhibitor catalog; cited from earlier work
human c-Met = molecular target: human c-Met; parameters: method as in S-inhibitor catalog; conditions: vendor brief description; ref S-inhibitor catalog; cited from earlier work
in vitro = conditions: human, Host viability (%) mean
wild-type CRAF = system: wild-type CRAF; parameters: method as in S-inhibitor catalog; conditions: vendor brief description; ref S-inhibitor catalog; cited from earlier work
BRAFV600E = system: BRAFV600E; parameters: method as in S-inhibitor catalog; conditions: vendor brief description; ref S-inhibitor catalog; cited from earlier work
mutant CETP(C13S) = system: mutant CETP(C13S); parameters: method as in S-inhibitor catalog; conditions: vendor brief description; ref S-inhibitor catalog; cited from earlier work
Chk1 = system: Chk1; parameters: method as in S-inhibitor catalog; conditions: vendor brief description; ref S-inhibitor catalog; cited from earlier work
GSK-3ɑ = conditions: read-out: IC50, GSK-3ɑ; vendor brief description; ref S-inhibitor catalog; cited from earlier work
GSK-3β = conditions: read-out: IC50, GSK-3β; vendor brief description; ref S-inhibitor catalog; cited from earlier work
[2] = molecular target: glycogen phosphorylase (GP); parameters: method as in S-inhibitor catalog; conditions: vendor brief description; ref S-inhibitor catalog; cited from earlier work
[3] = system: Pol I-driven transcription of rRNA; parameters: method as in S-inhibitor catalog; conditions: in HCT-116 cells; vendor brief description; ref S-inhibitor catalog; cited from earlier work
PDGFRα = system: PDGFRα; parameters: method as in S-inhibitor catalog; conditions: in PDGFRα over-expressed CHO cells; vendor brief description; ref S-inhibitor catalog; cited from earlier work
ErbB4 = system: ErbB4; parameters: method as in S-inhibitor catalog; conditions: vendor brief description; ref S-inhibitor catalog; cited from earlier work
ErbB2 = system: ErbB2; parameters: method as in S-inhibitor catalog; conditions: vendor brief description; ref S-inhibitor catalog; cited from earlier work
ErbB1 = system: ErbB1; parameters: method as in S-inhibitor catalog; conditions: vendor brief description; ref S-inhibitor catalog; cited from earlier work
CDK4 = system: CDK4; parameters: method as in S-inhibitor catalog; conditions: vendor brief description; ref S-inhibitor catalog; cited from earlier work
CDK6 = system: CDK6; parameters: method as in S-inhibitor catalog; conditions: vendor brief description; ref S-inhibitor catalog; cited from earlier work
CDK7 = system: CDK7; parameters: method as in S-inhibitor catalog; conditions: vendor brief description; ref S-inhibitor catalog; cited from earlier work
CDK1 = system: CDK1; parameters: method as in S-inhibitor catalog; conditions: vendor brief description; ref S-inhibitor catalog; cited from earlier work
IGF-1R = system: IGF-1R; parameters: method as in S-inhibitor catalog; conditions: vendor brief description; ref S-inhibitor catalog; cited from earlier work
ALK = conditions: read-out: IC50, ALK; vendor brief description; ref S-inhibitor catalog; cited from earlier work
[4] = read-out: Parasite inhibition (%) mean, preliminary screen of compound library, mean

O=C1NC(=O)C(=Cc2ccc(-c3ccc(F)cc3)o2)S1 (stereo in doubt) [CAY10505]
inhibition of growth at 5 µM [1, 4]: -7.4%
IC50 (PI3Kγ): 30 nM

O=C(Nc1ccccc1)Nc1ccc(-c2ccc(C(=O)[C@@H]3CCC[C@@H]3C(=O)O)cc2)cc1 [A 922500]
IC50 (human DGAT-1): 7 nM
inhibition of growth at 5 µM [1, 4]: 2%
IC50 (mouse DGAT-1): 24 nM

N#Cc1c(O)c2c(-c3ccc(-c4ccccc4O)cc3)csc2[nH]c1=O [A-769662]
IC50 (fatty acid synthesis): 3200 nM
inhibition of growth at 5 µM [1, 4]: -13.9%

COc1ccc2c(Oc3ccc(NC(=O)c4c(C)n(CC(C)(C)O)n(-c5ccccc5)c4=O)nc3)ccnc2c1 [AMG458]
Ki (mouse c-Met): 2 nM
inhibition of growth at 5 µM [1, 4]: 86.6%
Ki (human c-Met): 1.2 nM
viability at 72 h (in vitro): 75.9%

Cc1ccc(NC(=O)c2cccc(C(C)(C)C#N)c2)cc1Nc1ccc2ncn(C)c(=O)c2c1 [AZ628]
IC50 (wild-type CRAF): 29 nM
inhibition of growth at 5 µM [1, 4]: 0.6%
IC50 (BRAFV600E): 34 nM

COc1cc(F)c(C(C)C)cc1-c1ccc(C(F)(F)F)cc1CN1C(=O)O[C@H](c2cc(C(F)(F)F)cc(C(F)(F)F)c2)[C@H]1C [Anacetrapib (MK-0859)]
IC50 (mutant CETP(C13S)): 11.8 nM
inhibition of growth at 5 µM [1, 4]: 22.1%

O=c1[nH]c2ccc(Cl)cc2c(N[C@@H]2CN3CCC2CC3)c1-c1nc2ccccc2[nH]1 [CHIR-124]
IC50 (Chk1): 0.3 nM
inhibition of growth at 5 µM [1, 4]: 0%

Nc1nc(NCCNc2ncc(-n3ccnc3)c(-c3ccc(Cl)cc3Cl)n2)ccc1[N+](=O)[O-] [CHIR-98014]
IC50 (GSK-3ɑ): 0.65 nM
inhibition of growth at 5 µM ([1]; read-out: Parasite inhibition (%) mean): 52.4%
IC50 (GSK-3β): 0.58 nM

CN(C)C(=O)[C@H](O)[C@H](Cc1ccccc1)NC(=O)c1cc2cc(Cl)ccc2[nH]1 [CP-91149]
IC50 [2]: 130 nM
inhibition of growth at 5 µM [1, 4]: 28.6%

Cc1cnc(CNC(=O)c2c(=O)c3ccc(N4CCCN(C)CC4)nc3n3c2sc2ccccc23)cn1 [CX-5461]
inhibition of growth at 5 µM [1, 4]: 2.5%
IC50 [3]: 142 nM

CC1(COc2ccc3c(c2)ncn3-c2ccc3cccc(N4CCC(N)CC4)c3n2)COC1 [Crenolanib (CP-868596)]
inhibition of growth at 5 µM [1, 4]: 0.2%

COc1cc2ncnc(Nc3ccc(F)c(Cl)c3)c2cc1NC(=O)/C=C/CN1CCCCC1 [Dacomitinib (PF299804,PF-00299804)]
inhibition of growth at 5 µM [1, 4]: 0.4%

CN1CC[C@H](c2c(O)cc(O)c3c(=O)cc(-c4ccccc4Cl)oc23)[C@H](O)C1 [Flavopiridol (Alvocidib) HCl]
inhibition of growth at 5 µM [1, 4]: 6.4%
IC50 (CDK7): 300 nM

CNC(=O)c1c(F)cccc1Nc1nc(Nc2cc3c(cc2OC)CCN3C(=O)CN(C)C)nc2[nH]ccc12 [GSK1838705A]
inhibition of growth at 5 µM [1, 4]: 70.9%
IC50 (IGF-1R): 2 nM
viability at 72 h (in vitro): 72.8%
IC50 (ALK): 0.5 nM
